The text below walks through data of ChEMBL document CHEMBL1126539, “Oxazole, thiazole, and imidazole derivatives of 2,6-di-tert-butylphenol as dual 5-lipoxygenase and cyclooxygenase inhibitors” (Bioorg Med Chem Lett, 1993).

A value given as a limit tells only on which side of the number the result lay.

Assay [1] has as its system RBL-1. Put plainly: Compound was tested for its inhibitory activity against LTB4 (5-LO) formation in RBL-1 cells stimulated with the calcium ionophore A-23187. It is filed as functional, cell-based. As to conditions: Rattus norvegicus.
Assay [2] has as its system RBL-1. Put plainly: Compound was tested for its inhibitory activity against PGF-2 alpha (CO) formation in RBL-1 cells stimulated with the calcium ionophore A-23187. It is filed as functional, cell-based. Particulars: Rattus norvegicus.
The subject of a further assay is Rattus norvegicus. Put plainly: Compound was tested for inhibition of edema in the carrageenan foot-pad edema test; inactive. Type of assay: functional. Background: The carrageenan paw model is a standard test of acute inflammation.

One may read the IC50 as the concentration needed to halve the response being measured. For `CC(C)(C)c1cc(/C=C2\SC(N=C(N)N)=NC2=O)cc(C(C)(C)C)c1O`, the IC50 in the assay with RBL-1 [1] amounted to 0.91 µM; in the assay on RBL-1 [2] it was 0.083 µM.
As to `CC(C)(C)c1cc(/C=C2\SC(=N)NC2=O)cc(C(C)(C)C)c1O` [DARBUFELONE], the values for the half-maximal inhibitory concentration (IC50) with RBL-1 [1] and with RBL-1 [2] were 1.2 µM and 0.11 µM, respectively.
A word on the Inhibition: it is the drop in the measured response relative to a control, in per cent. Read a low Inhibition as little suppression. Regarding `CN1C(=O)NC(=O)/C1=C/c1cc(C(C)(C)C)c(O)c(C(C)(C)C)c1`, the Inhibition with Rattus norvegicus is on record as under 25%. Moreover, the IC50 with RBL-1 [1] amounted to 0.78 µM; in the assay on RBL-1 [2] it was 4.6 µM.
Consider `CC(C)(C)c1cc(/C=C2\OC(=O)NC2=O)cc(C(C)(C)C)c1O`, for which the values for the IC50 in the assay on RBL-1 [1] and with RBL-1 [2] were 2.8 µM and 0.65 µM, respectively.
With `CC(C)(C)c1cc(/C=C2\OC(N=C(N)N)=NC2=O)cc(C(C)(C)C)c1O`, the concentration for half-maximal inhibition (IC50) was determined as 1.2 µM in the assay on RBL-1 [1] and 0.34 µM with RBL-1 [2].
For `CN1C(NC(=N)N)=NC(=O)/C1=C/c1cc(C(C)(C)C)c(O)c(C(C)(C)C)c1`, in the assay with Rattus norvegicus, the Inhibition is under 25%. Besides, the IC50 in the assay with RBL-1 [1] was found to be 1.3 µM; with RBL-1 [2], 2.1 µM.
With `CC(C)(C)c1cc(/C=C2\OC(=S)NC2=O)cc(C(C)(C)C)c1O`, the IC50 is 0.84 µM in the assay with RBL-1 [1] and 1.7 µM in the assay with RBL-1 [2].
`CC(C)(C)c1cc(/C=C2\SC(=S)NC2=O)cc(C(C)(C)C)c1O`: the IC50 worked out at 0.38 µM in the assay on RBL-1 [1] and 0.012 µM in the assay with RBL-1 [2].
As to `CC(C)(C)c1cc(/C=C2\SC(=O)NC2=O)cc(C(C)(C)C)c1O`, in the assay with RBL-1 [2], the concentration for half-maximal inhibition (IC50) was 0.35 µM.
Take `Cc1ccc(Cl)c(Nc2ccccc2C(=O)O)c1Cl` [MECLOFENAMATE SODIUM]: in the assay on RBL-1 [1], the half-inhibitory concentration (IC50) stood at 24 µM.
On to `CN1C(=S)NC(=O)/C1=C/c1cc(C(C)(C)C)c(O)c(C(C)(C)C)c1`, for which the Inhibition with Rattus norvegicus is under 25%. Also, the half-inhibitory concentration (IC50) in the assay with RBL-1 [1] turned out to be 0.17 µM; with RBL-1 [2] it was 0.79 µM.
